From ChEMBL document CHEMBL1201862, “PubChem BioAssay data set” (2004)
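A five-concentration, 48-hour dose response in 96-well plates underlies each endpoint, interpolated linearly between surrounding concentrations. Here, GI50 denotes the concentration required for 50% inhibition of growth.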 Active and inactive are the calls of the source. Cut-off read from the data, not from the text of the source: active = GI50 up to about 1.1 µM and inactive = higher.

Assays:
Assay in all cases: DTP human tumour cell line panel, 48 h
SK-OV-3 = test system: SK-OV-3
NCI-H226 = test system: NCI-H226
NCI-H522 = test system: NCI-H522
SF-295 = test system: SF-295
MDA-N = test system: MDA-N
BT-549 = test system: BT-549
CCRF-CEM = test system: CCRF-CEM
A498 = test system: A498
SNB-19 = test system: SNB-19
A549 = test system: A549
HCT-15 = test system: HCT-15
NCI/ADR-RES = test system: NCI/ADR-RES
RPMI-8226 = test system: RPMI-8226
OVCAR-8 = test system: OVCAR-8
MDA-MB-231 = test system: MDA-MB-231
UO-31 = test system: UO-31
HOP-62 = test system: HOP-62
SNB-75 = test system: SNB-75
LOX IMVI = test system: LOX IMVI
SK-MEL-2 = test system: SK-MEL-2

| SMILES | GI50 (SK-OV-3) | GI50 (NCI-H226) | GI50 (NCI-H522) | GI50 (SF-295) | GI50 (MDA-N) | GI50 (BT-549) | GI50 (CCRF-CEM) | GI50 (A498) | GI50 (SNB-19) | GI50 (A549) | GI50 (HCT-15) [µM] | GI50 (NCI/ADR-RES) | GI50 (RPMI-8226) | GI50 (OVCAR-8) | GI50 (MDA-MB-231) | GI50 (UO-31) | GI50 (HOP-62) | GI50 (SNB-75) | GI50 (LOX IMVI) | GI50 (SK-MEL-2) |
| --- | --- | --- | --- | --- | --- | --- | --- | --- | --- | --- | --- | --- | --- | --- | --- | --- | --- | --- | --- | --- |
| O=c1c(-c2nc3ccccc3c3ccccc3c2=O)nc2ccccc2c2ccccc12 | > 100 µM (inactive) | > 100 µM (inactive) | 37.1 µM (inactive) | 29.7 µM (inactive) | 24.3 µM (inactive) | 47.1 µM (inactive) | 28.1 µM (inactive) | 35.7 µM (inactive) | 30.3 µM (inactive) | 48 µM (inactive) | 32.7 | 34 µM (inactive) | 26.2 µM (inactive) | 27.7 µM (inactive) | 34 µM (inactive) | 90.2 µM (inactive) | 34.8 µM (inactive) | 32.1 µM (inactive) | 32.1 µM (inactive) | 27.4 µM (inactive) |
| CC1=C(C(=O)OC23CC4CC(CC(C4)C2)C3)C(c2ccccc2OC(F)F)C(C(=O)OC23CC4CC(CC(C4)C2)C3)=C(C)N1 (stereo not given) | > 100 µM (inactive) | > 100 µM (inactive) | 75.2 µM (inactive) | > 100 µM (inactive) | > 100 µM (inactive) | > 100 µM (inactive) | > 100 µM (inactive) | > 100 µM (inactive) | > 100 µM (inactive) | > 100 µM (inactive) | > 100 | > 100 µM (inactive) | > 100 µM (inactive) | > 100 µM (inactive) | > 100 µM (inactive) | > 100 µM (inactive) | > 100 µM (inactive) | 43.7 µM (inactive) | > 100 µM (inactive) | > 100 µM (inactive) |
| CCNCCCCNCCCCNCCCCNCCCCNCC | > 100 µM (inactive) | > 100 µM (inactive) | > 100 µM (inactive) | 42 µM (inactive) | 12.3 µM (inactive) | > 100 µM (inactive) | 63.5 µM (inactive) | > 94.2 µM (inactive) | 99.8 µM (inactive) | 20.7 µM (inactive) | > 100 | > 100 µM (inactive) | 53 µM (inactive) | > 100 µM (inactive) | > 100 µM (inactive) | 53.6 µM (inactive) | 26.4 µM (inactive) | 16.7 µM (inactive) | 32 µM (inactive) | 48.1 µM (inactive) |
| C=CCC1(OC(C)=O)C2OC(=O)C1(O)OCC2O (stereo not given) | > 100 µM (inactive) | > 100 µM (inactive) | > 100 µM (inactive) | > 100 µM (inactive) | > 100 µM (inactive) | > 100 µM (inactive) | > 100 µM (inactive) | > 100 µM (inactive) | > 100 µM (inactive) | > 100 µM (inactive) | > 100 | > 100 µM (inactive) | > 100 µM (inactive) | > 100 µM (inactive) | > 100 µM (inactive) | > 100 µM (inactive) | > 100 µM (inactive) | > 39.9 µM (inactive) | > 100 µM (inactive) | > 100 µM (inactive) |
| COc1cc(C2SCC(=O)N2c2ccc(-c3ccc(-n4c(-c5ccccc5)nc5ccccc5c4=O)cc3)cc2)ccc1O (stereo not given) | 16 µM (inactive) | 30.9 µM (inactive) | 35.1 µM (inactive) | > 100 µM (inactive) | 80 µM (inactive) | > 100 µM (inactive) | 42.4 µM (inactive) | > 100 µM (inactive) | > 100 µM (inactive) | > 100 µM (inactive) | 25.8 | 13.6 µM (inactive) | > 100 µM (inactive) | 96.6 µM (inactive) | > 100 µM (inactive) | 24.4 µM (inactive) | > 100 µM (inactive) | 15 µM (inactive) | 27.2 µM (inactive) | > 100 µM (inactive) |
| COC1(OC)C2(Cl)C(Cl)=C(Cl)C1(Cl)C1c3ccc(C(C)=O)c4cccc(c34)C12 (stereo not given) | 52.1 µM (inactive) | 17 µM (inactive) | 13.3 µM (inactive) | 26 µM (inactive) | 14.8 µM (inactive) | 47.6 µM (inactive) | 13.8 µM (inactive) | 14.3 µM (inactive) | > 59 µM (inactive) | 23 µM (inactive) | 6.24 | 36.6 µM (inactive) | 5.82 µM (inactive) | 48.6 µM (inactive) | 9.73 µM (inactive) | 27.5 µM (inactive) | 63.4 µM (inactive) | 25.9 µM (inactive) | 22.5 µM (inactive) | 17.3 µM (inactive) |
| CC(SC(=S)N1CCOCC1)C(=O)Nc1nnc(-c2ccccc2)o1 (stereo not given) | > 100 µM (inactive) | > 100 µM (inactive) | 39.8 µM (inactive) | 88.5 µM (inactive) | > 100 µM (inactive) | > 100 µM (inactive) | 4.23 µM (inactive) | > 100 µM (inactive) | > 100 µM (inactive) | 70 µM (inactive) | 29.7 | 26.1 µM (inactive) | 43.1 µM (inactive) | > 100 µM (inactive) | > 100 µM (inactive) | 53.2 µM (inactive) | > 100 µM (inactive) | > 100 µM (inactive) | 71.4 µM (inactive) | > 100 µM (inactive) |
